Laboratory results published in patent publication US7084268B1, “Carbapenem compound crystals and interjection preparations” (Eisai Co., Ltd., priority 1999, dated 2006).
Several values for one entry are separate records, joined by “and”; a condition that tells them apart may be missing. Equal entries are not always repeated. Structures can show the parent of a compound that is named as a salt.

Columns and labels:
Format in all cases: physicochemical
[1] = Effect of degasification of the air in a vial and/or replacement by nitrogen (storage of powdery charged preparations); conditions: for HPLC impurity, mean / content of residual carbapenem compound, mean: N=3
Method: As the monohydrate crystals, the powdery charged preparation of the novel carbapenem hydrochloride crystals (25 mg/vial) obtained in the method in Example 2-3 (replacement by nitrogen), the powdery charged preparation (25 mg/vial) subjected to replacement by oxygen in place of replacement by nitrogen in Example 2-3, and the powdery charged preparation (25 mg/vial) not subjected to replacement in Example 2-2 were stored at 60° C. for 5 days (N=3) and then measured for their color difference (ΔE), water content, powdery x-ray diffraction pattern, content of residual carbapenem and HPLC impurities. As the trihydrate crystals, the powdery charged preparation of the novel carbapenem hydrochloride crystals (25 mg/vial) obtained by the method (replacement by nitrogen) in Example 1-9 and the powdery charged preparation (25 mg/vial) not subjected to replacement in Example 1-8 were stored at 40° C. for 1 month and then measured for their color difference (ΔE), water content and content of residual carbapenem. The color difference was evaluated by a color difference meter (ZE-200, Nippondenso Co., Ltd.); the water content by a Karl-Fisher moisture meter (CA-05, Mitsubishi Kagaku Kogyo); the powdery X-ray diffraction under the method and conditions in Example 1-1 or 2-1; and the content of residual carbapenem and HPLC impurities by high performance liquid chromatography (Shimadzu Corporation). The color difference (ΔE) is a parameter indicative of a change in the color of the outward appearance of crystals, and its higher value indicates a greater coloration change than at an initial stage (just after production).

[2] = Storage of crystals in bottles without caps at various relative humidity, with or without oxygen absorbent; conditions: 25° C., 2 weeks, listed as monohydrate crystals, monohydrochloride monohydrate
[3] = Color difference after degasification of vial at various pressures and replacement by nitrogen; conditions: 60° C., n = 6
Method: As the monohydrate, the powdery charged preparations for injection of the novel carbapenem crystals (25 mg/vial) obtained by degasification of the air in the vial at 100, 10, 1, 0.1 and 0.01 hPa (hectopascal) respectively and subsequent replacement by nitrogen according to the method in Example 2-3 (replacement by nitrogen) were stored at 60° C. for 1 or 4 weeks (N=6) and then measured for their color difference (ΔE). The oxygen concentrations in the preparations in vials degasified at 100, 10, 1, 0.1, 0.01 hPa (hectopascal) were measured by an oxygen analyzer (RO-101, Iizima Kogyo). As the trihydrate, the powdery charged preparations of the novel carbapenem hydrochloride crystals (25 mg/vial) obtained in the method in Example 1-9 (replacement by nitrogen) were degasified in the same manner, stored at 80° C. for 1 week (N=6) and then measured for their color difference (ΔE). As the control, the powdery charged preparation of the novel carbapenem hydrochloride crystals (25 mg/vial) subjected to neither degasification nor replacement by nitrogen was used.

[4] = Storage of crystals in bottles without caps at various relative humidity, with or without oxygen absorbent; conditions: for water content (hygroscopicity): 25° C., 2 weeks, listed as monohydrate crystals, monohydrochloride monohydrate
Method: The novel carbapenem hydrochloride crystals were weighed in 25 mL wide-mouthed glass bottles (30 mg/bottle), and in the bottles without caps, the monohydrate was stored for 1 week at 40° C. at a relative humidity of 0%, 19.2%, 53% and 75%, and the trihydrate was stored for 2 weeks at 25° C. at a relative humidity of 11%, 33%, 51%, 75% and 93%. Then, the crystals were measured for their color difference (ΔE), water content, powdery X-ray diffraction pattern, and content of residual carbapenem. The monohydrate was also examined in the presence or absence of an oxygen absorbent (trade name: Ageless, produced by Mitsubishi Gas Chemical Co., Ltd.) during storage at each relative humidity. The oxygen absorbent makes oxygen-free conditions under which the preparation is placed.

[5] = 25 mg/vial, control (air), no replacement, stored 60° C. for 5 days
[6] = 25 mg/vial, control (air), no replacement, stored 60° C. for 5 days, monohydrochloride monohydrate
[7] = 25 mg/vial, gas for replacement nitrogen, stored 60° C. for 5 days
[8] = 25 mg/vial, gas for replacement nitrogen, stored 60° C. for 5 days, monohydrochloride monohydrate
[9] = 25 mg/vial, gas for replacement oxygen, stored 60° C. for 5 days
[10] = 25 mg/vial, gas for replacement oxygen, stored 60° C. for 5 days, monohydrochloride monohydrate
[11] = monohydrate powdery charged preparation, initial stage
[12] = 40° C., 1 week, relative humidity 0%, oxygen absorbent absence
[13] = 40° C., 1 week, relative humidity 0%, oxygen absorbent presence
[14] = 40° C., 1 week, relative humidity 19.2%, oxygen absorbent absence
[15] = 40° C., 1 week, relative humidity 19.2%, oxygen absorbent presence
[16] = 40° C., 1 week, relative humidity 53%, oxygen absorbent absence
[17] = 40° C., 1 week, relative humidity 53%, oxygen absorbent presence
[18] = 40° C., 1 week, relative humidity 75%, oxygen absorbent absence
[19] = 40° C., 1 week, relative humidity 75%, oxygen absorbent presence
[20] = monohydrate crystals, initial stage

With `C[C@@H](O)[C@H]1C(=O)N2C(C(=O)O)=C(S[C@@H]3CN[C@H]([C@H](O)[C@@H]4CCNC4)C3)[C@H](C)[C@H]12` [monohydrate, (+)-(1R,5S,6S)-6-[(R)-1-Hydroxyethyl]-1-methyl-2-[(2S,4S)-2-[(3R)-pyrrolidine-3-yl-(R)-hydroxymethyl]pyrrolidine-4-yl]thio-1-carbapen-2-em-3-carboxylic acid monohydrochloride monohydrate] the “powdery X-ray diffraction pattern” value [1, 5] was “no change”, the “HPLC impurity, mean” value [1, 5] was 0.63% and the “content of residual carbapenem compound, mean” value [1, 5] was 98.40%. The HPLC impurity [1, 6] was 0.62% and 0.64%, the “color difference (ΔE)” value [1, 6] was 10.48 and 11.21 and 10.41 and the “content of residual carbapenem compound” value [1, 6] was 98.6% and 98.1%. For the same molecule, the water content [1, 6] was 5.87% and 5.93%, the “powdery X-ray diffraction pattern” value [1, 7] was “no change” and the “HPLC impurity, mean” value [1, 7] was 0.63%. The “content of residual carbapenem compound, mean” value [1, 7] was 98.40%, the HPLC impurity [1, 8] was 0.63% and 0.64% and the “color difference (ΔE)” value [1, 8] was 4.23 and 4.57 and 5.23. The water content [1, 8] was 5.80% and 5.78% and 5.77%, the “powdery X-ray diffraction pattern” value [1, 9] was “no change” and the “HPLC impurity, mean” value [1, 9] was 0.64%. The “content of residual carbapenem compound, mean” value [1, 9] was 97.80%, the HPLC impurity [1, 10] was 0.63% and 0.64% and the “color difference (ΔE)” value [1, 10] was 12.7 and 12.14 and 11.46. For the same molecule, the “content of residual carbapenem compound” value [1, 10] was 97.5% and 98.1% and 97.8%, the water content [1, 10] was 5.78% and 5.77% and 5.75% and the HPLC impurity [1, 11] was 1.03%. For the same molecule, the water content [1, 11] was 5.99%, the “water content (hygroscopicity)” value ([2]; relative humidity 11%) was 5.0% and the “water content (hygroscopicity)” value ([2]; relative humidity 75%) was 6.2%. For the same molecule, the “water content (hygroscopicity)” value ([2]; relative humidity 93%) was 8.4%, the “color difference (ΔE)” value ([3]; control: neither degasification nor replacement by nitrogen, 1 week) was 7.37 and the “color difference (ΔE)” value ([3]; control: neither degasification nor replacement by nitrogen, 4 weeks) was 14.94. The “color difference (ΔE)” value ([3]; vial degasified at 0.01 hPa (oxygen concentration 0.24 ± 0.03%), replaced by nitrogen, 1 week) was 3.11, the “color difference (ΔE)” value ([3]; vial degasified at 0.01 hPa (oxygen concentration 0.24 ± 0.03%), replaced by nitrogen, 4 weeks) was 4.91 and the “color difference (ΔE)” value ([3]; vial degasified at 0.1 hPa (oxygen concentration 0.21 ± 0.01%), replaced by nitrogen, 1 week) was 2.28. For the same molecule, the “color difference (ΔE)” value ([3]; vial degasified at 0.1 hPa (oxygen concentration 0.21 ± 0.01%), replaced by nitrogen, 4 weeks) was 4.98, the “color difference (ΔE)” value ([3]; vial degasified at 1 hPa (oxygen concentration 0.24 ± 0.04%), replaced by nitrogen, 1 week) was 2.62 and the “color difference (ΔE)” value ([3]; vial degasified at 1 hPa (oxygen concentration 0.24 ± 0.04%), replaced by nitrogen, 4 weeks) was 4.51. The “color difference (ΔE)” value ([3]; vial degasified at 10 hPa (oxygen concentration 0.29 ± 0.08%), replaced by nitrogen, 1 week) was 2.40, the “color difference (ΔE)” value ([3]; vial degasified at 10 hPa (oxygen concentration 0.29 ± 0.08%), replaced by nitrogen, 4 weeks) was 5.69 and the “color difference (ΔE)” value ([3]; vial degasified at 100 hPa (oxygen concentration 3.01 ± 1.12%), replaced by nitrogen, 1 week) was 2.85. The “color difference (ΔE)” value ([3]; vial degasified at 100 hPa (oxygen concentration 3.01 ± 1.12%), replaced by nitrogen, 4 weeks) was 8.02, the “water content (hygroscopicity)” value ([4]; relative humidity 33%) was 5.6% and the “water content (hygroscopicity)” value ([4]; relative humidity 51%) was 5.9%. For the same molecule, the “color difference (ΔE)” value [4, 12] was 1.87, the “content of residual carbapenem compound” value [4, 12] was 101.1% and the “powdery X-ray diffraction pattern” value [4, 12] was “no change”. For the same molecule, the water content [4, 12] was 5.08%, the “color difference (ΔE)” value [4, 13] was 2.95 and the “content of residual carbapenem compound” value [4, 13] was 100.3%. The “powdery X-ray diffraction pattern” value [4, 13] was “no change”, the water content [4, 13] was 5.31% and the “color difference (ΔE)” value [4, 14] was 5.01. For the same molecule, the “content of residual carbapenem compound” value [4, 14] was 99.9%, the “powdery X-ray diffraction pattern” value [4, 14] was “no change” and the water content [4, 14] was 6.18%. The “color difference (ΔE)” value [4, 15] was 3.97, the “content of residual carbapenem compound” value [4, 15] was 100.5% and the “powdery X-ray diffraction pattern” value [4, 15] was “no change”. For the same molecule, the water content [4, 15] was 5.72%, the “color difference (ΔE)” value [4, 16] was 6.28 and the “content of residual carbapenem compound” value [4, 16] was 100.6%. The “powdery X-ray diffraction pattern” value [4, 16] was “no change”, the water content [4, 16] was 6.17% and the “color difference (ΔE)” value [4, 17] was 5.85. For the same molecule, the “content of residual carbapenem compound” value [4, 17] was 102.0%, the “powdery X-ray diffraction pattern” value [4, 17] was “no change” and the water content [4, 17] was 6.29%. For the same molecule, the “color difference (ΔE)” value [4, 18] was 35.98, the “content of residual carbapenem compound” value [4, 18] was 99.8% and the “powdery X-ray diffraction pattern” value [4, 18] was “no change”. The water content [4, 18] was 6.60%, the “color difference (ΔE)” value [4, 19] was 4.56 and the “content of residual carbapenem compound” value [4, 19] was 100.8%. The “powdery X-ray diffraction pattern” value [4, 19] was “no change”, the water content [4, 19] was 6.43% and the HPLC impurity [4, 20] was 0.93%. It also gave a water content [4, 20] of 5.49%.
